Measured values: PubChem BioAssay AID179 (DTP/NCI, 2004)
Calls of active or inactive are those of the source.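 How the source made its calls: active means compounds giving half or more protection of infected cells from virus-caused growth loss, again on retest; inactive means the rest.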

Test system: CEM cells HIV-1 protection, formazan growth assay
Experiment: NCI AIDS Antiviral Assay
Conditions: for IC50: measured here: growth of uninfected CEM cells
How it was run: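 Human CEM cells, uninfected and HIV-1-infected, exposed to five drug concentrations; growth measured by soluble formazan assay and scored as percent protection from infection, with protecting compounds retested.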

Structure (SMILES) | EC50 [µM] | IC50 [µM] | outcome
CCOC(=O)/C(=C/c1cccc(C#N)c1)N(CC)CC | > 661 | 347 | –
CSc1snc2sc3c(Cl)nnnc3c12 | – | – | inactive
Cc1nnc2sc(/C=C/c3ccccc3)nn12 | – | > 200 | inactive
O=C1c2ccccc2-c2ccc3c4ccc5c6c(ccc(c7ccc1c2c73)c64)-c1ccccc1C5=O | > 200 | > 200 | –
O=C1CCC(=O)N1Cc1ccccc1N=[N+]([O-])c1ccccc1CN1C(=O)CCC1=O | – | > 200 | inactive
CCOC(=O)CCC(NC(=O)c1ccc(Nc2nc3cc(C(F)(F)F)ccc3nc2-c2ccccc2)cc1)C(=O)OCC (centres undefined) | > 200 | 8.13 | –
CC1(C)N=C(N)N=C(N)N1c1cccc(/C=C(\C#N)c2ccccc2)c1 | > 200 | 4.79 | –
Cc1cc(N(CCC#N)CCC#N)ccc1/C=C1N=C(/C=C/c2ccccc2)OC(=O)N\1 | > 3.39 | > 3.39 | –
Cc1cn(C2CC(NC(=O)NO)C(CO)O2)c(=O)[nH]c1=O (centres undefined) | > 200 | > 200 | –
COc1nc(NC2OC(COC(C)=O)C(OC(C)=O)C(OC(C)=O)C2OC(C)=O)c(N=C(C)C(C)=O)c(=O)n1C (centres undefined) | – | – | inactive
C=C(Cl)c1c(OC)cccc1OCc1ccccc1 | > 200 | 97.7 | –
COc1ccc(Cc2cc(Cc3ccc(OC)cc3)cc(Cc3ccc(OC)cc3)c2)cc1 | > 100 | > 100 | –
COc1ccc(C2c3cc4c(cc3OC(NCCO)C2C)OCO4)cc1 (centres undefined) | > 200 | 21.9 | –
COC(=O)N1C2C3CC4C2C4C3N1C(=O)OC | – | – | inactive
O=c1n(-c2ccccc2)c(=O)n2n1C1/C=C\C=C/C2C2CCC21 (centres undefined) | > 200 | > 200 | –
O=C1C[C@@H]2OC3=C(C(=O)CCC3)[C@@H]2O1 | > 1290 | 7.24 | –
N#Cc1c(-c2ccccc2)ssc1=S | > 200 | 14.1 | –
COc1ccc(CC2COC(=O)[C@@H]2Cc2ccc(O)cc2)cc1OC (some centres undefined) | > 200 | 44.7 | –
COC[C@@H](N=CN1CCc2ccccc2C1)c1ccccc1 | > 324 | > 324 | –
O=c1oc2ccccc2c(O)c1C(c1ccc([N+](=O)[O-])cc1)c1c(O)c2ccccc2oc1=O | – | – | inactive
Cc1cc(C(F)(F)F)cc(-n2nc(NS(=O)(=O)c3cc(C)c(Cl)cc3S)nc2N)n1 | > 200 | 166 | –
c1csc(-c2ccc(-c3ccsc3)s2)c1 | > 200 | > 200 | –
O=Nc1[nH]c(O)c2ccccc12 | > 200 | > 200 | –
O=C(O)c1ccccc1-c1c2ccc(=O)c(Cl)c-2oc2c(Cl)c(O)ccc12 | 17.8 | 56.2 | –

Structure (SMILES) | EC50 [µM] | IC50 [µM] | outcome
CC(=O)OCC1OC(n2c(C)c(C)c(C)c(C#N)c2=S)C(OC(C)=O)C(OC(C)=O)C1OC(C)=O (centres undefined) | > 200 | > 200 | –
CC(=O)OCC1OC(n2c(-c3ccc(Cl)cc3)ccc(C#N)c2=S)C(OC(C)=O)C(OC(C)=O)C1OC(C)=O (centres undefined) | > 200 | > 200 | –
CCN(CC)C1=CC(=O)n2cccc21 | > 200 | > 200 | –
CCNc1cc2c(cc1O)CC[C@@H]1[C@@H]2CC[C@]2(C)[C@@H](O)CC[C@@H]12 | > 200 | 3.89 | –
C[Si](C)(C)CCCS(=O)(=O)O | > 200 | > 200 | –
CCOC(=O)C(C(=S)SC)c1nn2c(=O)cc(C)nc2s1 (centres undefined) | > 200 | 19.1 | –
CC(=O)O/N=C/c1ncccc1CO | > 490 | 389 | –
CCOC(=O)C(=O)Nc1ccccc1C(C)C | > 151 | > 151 | –
O=c1[nH]c(=O)n2n1C1C=CC2CC1 | > 200 | > 200 | –
CCSC(CCC(NC(C)=O)C(=O)O)SCC (centres undefined) | > 200 | > 200 | –
CCOC(=O)N(NC(=O)NC(C)C)c1ccccc1 | > 200 | > 200 | –
CCC(=O)SC1CC2=CC(=O)CCC2(C)C2CCC3(C)C(O)CCC3C12 (centres undefined) | > 200 | > 200 | –
COc1ccc(-c2cc(=O)c3c(O)cc(O)c(-c4cc(-c5cc(=O)c6c(O)cc(OC)cc6o5)ccc4OC)c3o2)cc1 | > 200 | 107 | –
Cc1cc(=O)[nH]c(CNC(=O)c2ccc3ccccc3c2)n1 | > 123 | > 123 | –
COC(=O)CCn1c(N)nc2c1c(=O)n(C)c(=O)n2C | > 468 | > 468 | –
Nc1nc(N)c(N=O)c(Nc2ccc(Br)c(Br)c2)n1 | – | – | inactive
Cc1cc(NC(=O)c2ccc(N)cc2)ccc1N=Nc1ccc2c(O)c(N=Nc3ccc(S(=O)(=O)O)cc3C)c(S(=O)(=O)O)cc2c1 | 34.7 | > 200 | –
COc1ccccc1NC(=O)C(CC(C(=O)Nc1ccccc1OC)/C(C)=N/NC(=O)c1ccccc1O)/C(C)=N/NC(=O)c1ccccc1O (centres undefined) | > 51.3 | > 51.3 | –
CC(=O)OCC1OC(N2C(C)=C(C(C)=O)C(c3ccco3)C(C#N)=C2S)C(OC(C)=O)C(OC(C)=O)C1OC(C)=O (centres undefined) | > 200 | 110 | –
CSc1nc(SC)c2nc(Nc3ccccc3)sc2n1 | > 200 | 6.17 | –
CCCCON1C[C@H](OC(C)=O)C(OC(C)=O)[C@H](OC(C)=O)C1 (some centres undefined) | > 200 | > 200 | –
CCCCCCOc1ccc(C(=O)NOC)cc1 | > 200 | 110 | –
COc1cc2c(c(O)c1OC)C(=O)[C@@H]1CCC(=O)N1C2c1ccccc1 (some centres undefined) | > 200 | 83.2 | –
O=Cc1cc([N+](=O)[O-])no1 | – | – | inactive

Structure (SMILES) | EC50 [µM] | IC50 [µM] | outcome
COc1cc(OC)c2nc(C)c(CCCl)c(Cl)c2c1 | > 200 | > 200 | –
O=C(O)C1(c2ccccc2)CCCNCC1 (centres undefined) | > 6170 | > 6170 | –
Cc1cc(N=O)cc(C)c1O | > 200 | 5.13 | –
CN1CCCC(CNC23CC4CC(CC(C4)C2)C3)C1 (centres undefined) | > 501 | > 501 | –
Cc1ccc(/C=C/C(=O)c2sc(-c3cccnc3)nc2C)cc1 | > 22.4 | > 22.4 | –
COCOC1/C=C/CCCCC(=O)C(C)C#CC1 (centres undefined) | > 200 | 7.24 | –
CCOC(=O)C12c3[nH]c4ccccc4c3CCN1CC1=NOC(=O)C12 (centres undefined) | > 132 | > 132 | –
COC1=NS(=O)(=O)C2CCCCCCC2O1 (centres undefined) | > 1000 | > 1000 | –
O=C1OC(=O)C2C3CC(C4N=NN(c5ccccc5)C34)C12 (centres undefined) | > 200 | > 200 | –
Cc1cc(O)c(C(=O)CC2(O)C(=O)Nc3c(Cl)cc(Cl)cc32)c(=O)o1 (centres undefined) | > 468 | > 468 | –
O=c1c2ccccc2[nH]c2c(O)ccc(O)c12 | – | – | inactive
COc1ccc(CCNC(=O)CCc2ccccc2CO)cc1OC | > 200 | > 200 | –
N#CC12CNCC1CN=N2 (centres undefined) | > 200 | > 200 | –
Nc1nc(NCCO)c(N=O)c(=O)[nH]1 | > 182 | > 182 | –
CC12CC(OC(=O)[C@]1(C)O)[C@@H]([C@]1(O)CC[C@H]3[C@@H]4C[C@H]5O[C@]56[C@@H](O)C=CC(=O)[C@]6(C)[C@H]4CC[C@@]31C)C2 (some centres undefined) | > 3.89 | 0.145 | –
NP(N)(=O)NC(=O)c1ccc(F)cc1 | > 200 | > 200 | –
Cn1c2ccccc2c2ccc3c(c21)C(=O)C(c1ccccc1)=CC3=O | > 40.7 | 29.5 | –
CNC(=O)O/N=C(C)/C(C)=N/OC(=O)NC | – | – | inactive
CCCCC#CCC(C(=O)O)C(=O)O | > 1260 | > 1260 | –
COC1=C(NC(C)=O)C(=O)c2nc3n(c2C1=O)CCC3 | > 200 | 75.9 | –
COc1ccc2c(=O)c3c([nH]c2c1)OCC3=O | > 100 | > 100 | –
COC(=O)NC1(NC(=O)OC)NC(=O)c2ccccc2N1 | > 200 | > 200 | –
CC(=O)c1c(O)c2ccccc2oc1=O | > 200 | 120 | –
COC(=O)/C=C/COCC1C2CCC(=O)C21 (centres undefined) | > 151 | > 151 | –

Structure (SMILES) | EC50 [µM] | IC50 [µM] | outcome
O=C1NC2(CCCC2)C2CCCCC12O (centres undefined) | – | – | inactive
O=c1[nH]c2ccc(O)cc2o1 | > 200 | > 200 | –
COc1ccc(CCNC(=O)CCCCCO)cc1OC | > 200 | 195 | –
COC(=O)C(=O)C1(CCC(C)=O)c2ccccc2-c2ccccc21 | – | – | inactive
CC(=O)C(C)C(=O)N1C(=O)N(C)C2(C)N(C)C(=O)NC12C (centres undefined) | > 200 | > 200 | –
CC1=CC(=O)C(=C(C)C)CC1 | > 200 | 129 | –
O=[N+]([O-])c1cc(C2SCc3nc4ccccc4n32)ccc1Cl (centres undefined) | – | – | inactive
NC(N)=N/N=C(\c1ccccc1)C(O)c1ccccc1 (centres undefined) | > 200 | 107 | –
CCCCC1Sc2cc(OC)cc([N+](=O)[O-])c2NC1=O (centres undefined) | > 200 | 61.7 | –
CC1=C(C(=O)NNC(=O)CC#N)CC(C(=O)NNC(=O)CC#N)=C(C)N1 | > 200 | 123 | –
CCN(CC)C(=S)N/N=C/c1ccccn1 | > 0.2 | 0.00363 | –
NNC(=O)CNC(=O)c1ccc(Cl)cc1Cl | > 27.5 | > 27.5 | –
CCCCCCCCCCCC[N+]12CC[N+](CCN)(CC1)CC2 | > 251 | 56.2 | –
Cc1cc(C2=CSC3=NCCN23)ccc1Cl | > 200 | 151 | –
O=C1NC(=O)C2C(=O)NC(=O)C1C2c1c(Cl)cccc1Cl (centres undefined) | > 759 | 501 | –
Nc1nc(N)c2cc(Cl)ccc2n1 | > 1290 | 26.9 | –
CCOC(=O)c1ccc(CSc2ccc(Cl)cc2)cc1 | > 4.68 | > 4.68 | –
Cc1cc(N(CCC#N)CCC#N)ccc1/C=N/NC(=O)c1ccccc1 | > 200 | 7.41 | –
O=c1cc(N2CCOCC2)n2ccccc2n1 | > 200 | > 200 | –
Cc1nc2c(nc1C)C(=O)c1ccccc1C2=O | > 200 | 4.57 | –
CN=c1sc2c(n1C)C(=O)c1ccccc1C2=O | > 200 | 9.33 | –
Cc1cc(C)n(-c2nc3ccccc3c(=O)n2-c2ccccc2)n1 | > 200 | > 200 | –
CNc1cc2oc(=O)cc(C)c2cc1C | > 67.6 | > 67.6 | –
